In patent publication US20250332181A1, “ANTIBIOTIC METHODS AND COMPOSITIONS” (AI BIO DISCOVERY LLC, priority 2024, published 2025):
“Also recorded” adds a separate entry of the source.

Tests used:
Format in all cases: cell-based
[1] = test system: Acinetobacter baumannii; test: Disk diffusion test on Acinetobacter baumannii
Excerpt: (§1) Applicants undertook two rounds of studies. […] When agar plating was required, both rounds of Applicants' studies were undertaken using similar disk diffusion methods on bacteria grown on agar substrates in Petri dishes. These methods conform to those prescribed by the Clinical & Laboratory Standards Institute (https://clsi.org). […]

[2] = test system: MSSA (methicillin-sensitive Staphylococcus aureus); test: Disk diffusion test on Staphylococcus aureus (MSSA); conditions: for action of the antibiotic by itself on the Staphylococcus aureus strain: used either separately or in combination
Excerpt: as §1

[3] = test system: Escherichia coli; test: Disk diffusion test on Escherichia coli
Excerpt: as §1

[4] = test system: Klebsiella pneumoniae; test: Disk diffusion test on Klebsiella pneumoniae; conditions: for antibacterial activity of the agent by itself: single agent disk, ceftazidime 30 μg, meropenem 10 μg, Compound C 15 μg
Excerpt: (§2) Applicants undertook two rounds of studies. The results of the first round are illustrated in FIGS. 1A-9B and discussed in the related text. The results of the second round of studies are illustrated in FIGS. 10-23 and discussed in the related text. When agar plating was required, both rounds of Applicants' studies were undertaken using similar disk diffusion methods on bacteria grown on agar substrates in Petri dishes. These methods conform to those prescribed by the Clinical & Laboratory Standards Institute (https://clsi.org).
(§3) Disk Diffusion tests with beta-lactam antibiotics with and without the beta-lactamase inhibitor of FIG. 1A. Closely spaced disks disclose possible synergistic or inhibitory effects between the antibiotics and the compound of FIG. 1A (labeled in FIGS. 4A-9B as Compound C). The distances between disks show the effectiveness of the possible synergy. […] Each disk contains either the compound of FIG. 1A or an antibiotic (one of FIGS. 3A-3D), or the compound of […] and an antibiotic (one of FIGS. 3A-3D). When a disk with the compound of FIG. 1A is in proximity to a disk with an antibiotic both agents diffuse into the bacterial growth medium, allowing us to observe the area where both agents are present at the same time. These disk diffusion tests were evaluated with the following:
(§4) As noted above, Applicants' studies were undertaken using similar disk diffusion methods on bacteria grown on agar substrates in Petri dishes. These methods conform to those prescribed by the Clinical & Laboratory Standards Institute (https://clsi.org).

[5] = test system: Pseudomonas aeruginosa; test: Disk diffusion test on Pseudomonas aeruginosa
Excerpt: as §1

[6] = test system: methicillin-resistant coagulase-negative Staphylococcus sps. (MRCoNS); test: Disk diffusion test on MRCoNS; conditions: for antibacterial activity of the agent by itself: single agent disk, penicillin G 10 μg, cefoxitin 30 μg, Compound C 15 μg
Excerpt: as §2, §3, §4

[7] = test system: Citrobacter freundii; test: Disk diffusion test on Citrobacter freundii
Excerpt: as §1

[8] = in combination with ceftazidime
[9] = in combination with ceftriaxone
[10] = in combination with ceftazidime (second round)
[11] = in combination with meropenem (second round)
[12] = in combination with piperacillin

Row | Compound | effectiveness of the combination with antibiotic ([1]; in combination with cefepime) | effectiveness of the combination with antibiotic [4, 10] | effectiveness of the combination with antibiotic [1, 8] | effectiveness of the combination with antibiotic ([1]; in combination with meropenem) | effectiveness of the combination with antibiotic ([5]; in combination with aztreonam) | effectiveness of the combination with antibiotic ([5]; in combination with cefepime) | effectiveness of the combination with antibiotic ([5]; in combination with meropenem) | effectiveness of the combination with antibiotic [5, 12] | also measured
1 | Nc1cc(B(O)O)cc(C(=O)O)c1 [3-Amino-5-carboxylphenylboronic acid] | enhanced effectiveness | – | – | – | – | – | – | – | –
2 | CC1(C)S[C@@H]2[C@H](NC(=O)[C@H](N)c3ccc(O)cc3)C(=O)N2[C@H]1C(=O)O [amoxicillin, reference compound] | – | – | – | – | – | – | – | – | action of the antibiotic by itself on the Staphylococcus aureus strain [2]: completely resistant
3 | CC1(C)OB(c2ccc(C(=O)O)s2)OC1(C)C [5-Carboxythiophene-2-boronic acid pinacol ester] | enhanced effectiveness | enhanced effectiveness | enhanced effectiveness | enhanced effectiveness | enhanced effectiveness | partial effectiveness | – | – | effectiveness of the combination with antibiotic ([2]; in combination with ampicillin): enhanced effectiveness; effectiveness of the combination with antibiotic ([2]; in combination with penicillin G): enhanced effectiveness; effectiveness of the combination with antibiotic ([3]; in combination with amoxycillin): enhanced effectiveness; effectiveness of the combination with antibiotic [3, 8]: enhanced effectiveness; effectiveness of the combination with antibiotic [3, 9]: enhanced effectiveness; effectiveness of the combination with antibiotic ([3]; in combination with meropenem): enhanced effectiveness; effectiveness of the combination with antibiotic [4, 9]: enhanced effectiveness; effectiveness of the combination with antibiotic [4, 11]: enhanced effectiveness; effectiveness of the combination with antibiotic ([5]; in combination with cefoperazone): enhanced effectiveness; effectiveness of the combination with antibiotic ([6]; in combination with ampicillin): enhanced effectiveness; effectiveness of the combination with antibiotic ([6]; in combination with penicillin G (second round)): enhanced effectiveness; effectiveness of the combination with antibiotic [7, 8]: enhanced effectiveness; effectiveness of the combination with antibiotic [7, 9]: enhanced effectiveness; effectiveness of the combination with antibiotic ([7]; in combination with meropenem): enhanced effectiveness
4 | O=C(O)c1cccc(B(O)O)c1F [3-Carboxy-2-fluorophenylboronic acid] | enhanced effectiveness | enhanced effectiveness | enhanced effectiveness | enhanced effectiveness | – | partial effectiveness | partial effectiveness | partial effectiveness | effectiveness of the combination with antibiotic ([4]; in combination with cefepime): enhanced effectiveness; effectiveness of the combination with antibiotic [4, 11]: enhanced effectiveness; effectiveness of the combination with antibiotic ([7]; in combination with meropenem): partial effectiveness
5 | O=C(O)c1cc(B(O)O)ccc1Cl [5-Borono-2-chlorobenzoic acid] | enhanced effectiveness | enhanced effectiveness | enhanced effectiveness | enhanced effectiveness | – | – | – | – | effectiveness of the combination with antibiotic ([4]; in combination with cefepime): enhanced effectiveness
6 | CC1(C)OB(c2cccc(CC(=O)O)c2)OC1(C)C [Phenylacetic acid-3-boronic acid pinacol ester] | enhanced effectiveness | – | – | – | enhanced effectiveness | enhanced effectiveness | enhanced effectiveness | enhanced effectiveness | –
7 | C[C@@H](O)[C@H]1C(=O)N2C(C(=O)O)=C(S[C@@H]3CN[C@H](C(=O)N(C)C)C3)[C@H](C)[C@H]12 [Meropenem, meropenem, reference compound] | – | – | – | – | – | – | – | – | antibacterial activity of the agent by itself [4]: by itself IS active
8 | CC(C)(O/N=C(\C(=O)N[C@@H]1C(=O)N2C(C(=O)[O-])=C(C[n+]3ccccc3)CS[C@H]12)c1csc(N)n1)C(=O)O [Ceftazidime, ceftazidime, reference compound] | – | – | – | – | – | – | – | – | antibacterial activity of the agent by itself [4]: very little antibacterial activity; also recorded: by itself is inactive
9 | O=C(O)c1cc(B(O)O)ccc1F [5-Borono-2-fluorobenzoic acid] | enhanced effectiveness | – | – | enhanced effectiveness | enhanced effectiveness | enhanced effectiveness | – | enhanced effectiveness | –
10 | CO[C@@]1(NC(=O)Cc2cccs2)C(=O)N2C(C(=O)O)=C(COC(N)=O)CS[C@@H]21 [Cefoxitin, cefoxitin, reference compound] | – | – | – | – | – | – | – | – | antibacterial activity of the agent by itself [6]: active on its own
11 | O=C(O)c1cc(B(O)O)cc([N+](=O)[O-])c1 [Benzoic acid, 3-borono-5-nitro] | enhanced effectiveness | – | – | – | enhanced effectiveness | enhanced effectiveness | – | – | –
12 | O=C(O)c1ccc(Cl)c(B(O)O)c1 [5-Carboxy-2-chlorophenylboronic acid] | enhanced effectiveness | enhanced effectiveness | enhanced effectiveness | – | – | – | enhanced effectiveness | enhanced effectiveness | effectiveness of the combination with antibiotic ([4]; in combination with cefepime): enhanced effectiveness; effectiveness of the combination with antibiotic ([7]; in combination with meropenem): partial enhanced effectiveness
13 | OB(O)c1cc(F)cc(F)c1F [2,3,5-Trifluorophenylboronic acid] | enhanced effectiveness | – | enhanced effectiveness | enhanced effectiveness | enhanced effectiveness | enhanced effectiveness | enhanced effectiveness | enhanced effectiveness | effectiveness of the combination with antibiotic [5, 8]: enhanced effectiveness
14 | CC1(C)S[C@@H]2[C@H](NC(=O)Cc3ccccc3)C(=O)N2[C@H]1C(=O)O [Penicillin G, penicillin G, reference compound] | – | – | – | – | – | – | – | – | action of the antibiotic by itself on the Staphylococcus aureus strain [2]: completely resistant; antibacterial activity of the agent by itself [6]: no activity by itself; antibacterial activity of the agent by itself ([6]; listed as penicillin G): no antibacterial activity
15 | O=C(O)c1ccc(F)c(B(O)O)c1 [5-Carboxy-2-fluorophenylboronic Acid] | enhanced effectiveness | enhanced effectiveness | enhanced effectiveness | enhanced effectiveness | – | – | enhanced effectiveness | proved effective | effectiveness of the combination with antibiotic ([4]; in combination with cefepime): enhanced effectiveness; effectiveness of the combination with antibiotic [4, 11]: enhanced effectiveness
